In this assay the target is G protein-coupled receptor 17 (GPR17) (Homo sapiens, UniProt Q13304).

Molecules are shown by their SMILES.

Sequence of G protein-coupled receptor 17 (GPR17) (Q13304 whole entry): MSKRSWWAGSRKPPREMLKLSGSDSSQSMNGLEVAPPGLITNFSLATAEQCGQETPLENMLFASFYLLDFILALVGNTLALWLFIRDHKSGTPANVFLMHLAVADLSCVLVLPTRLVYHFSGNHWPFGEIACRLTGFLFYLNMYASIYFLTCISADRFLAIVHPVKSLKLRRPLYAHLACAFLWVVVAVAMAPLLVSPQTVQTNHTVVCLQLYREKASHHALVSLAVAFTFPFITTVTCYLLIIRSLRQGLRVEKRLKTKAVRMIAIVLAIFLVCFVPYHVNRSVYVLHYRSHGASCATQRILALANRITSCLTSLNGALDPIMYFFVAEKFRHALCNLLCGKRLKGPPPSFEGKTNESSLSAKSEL

In the case of `O=C(Nc1ccccc1)Oc1cc(OC(=O)Nc2ccccc2)c2c(c1)N(C(c1ccc(F)cc1)c1cccc(Cl)c1O)CC2` (stereo not shown) [CHBC, 1-((3-chloro-2-hydroxyphenyl)(4-fluorophenyl)methyl)indoline-4,6-diyl bis(phenylcarbamate)], the EC50 stood at 19.2 µM.

In general, EC50 refers to the midpoint of the concentration-response curve. A low value points to an effect from little substance.

Source of the values: article PMC8389915, “Synthesis and Preclinical Validation of Novel Indole Derivatives as a GPR17 Agonist for Glioblastoma Treatment” (Journal of Medicinal Chemistry, 2021).
